According to US20050090428A1, “Porphyrins with virucidal activity” (priority 2002, published 2005):

Columns and labels:
89.6 Env = 89.6 Env (Human immunodeficiency virus type 1 group M subtype B, UniProt Q73372); type: cell-based, HIV-1
[1] = molecular target: T1, binding of HIV-1 IIIB gp120 to CD4 (Human immunodeficiency virus type 1 group M subtype B, UniProt P04578); assay: gp120-CD4 binding assay (ELISA); details: 1 hr at room temperature
T1 construct: The recombinant IIB gp120 protein (baculovirus-expressed) was obtained from Intracel; purchased Intracel (Cambridge, Mass.) for gp120; host or cells: baculovirus-expressed (gp120)
Experimental: To investigate the possible effect of porphyrin compounds on binding of HIV-1 IIIB gp120 to CD4, a gp120 CD4 binding assay was developed. The assay was developed as a modification of a capture gp120 ELISA kit (Intracel Corporation). Briefly, a 96-well plate was coated with soluble CD4 and 0.5 μg of HIV-1 IIIB gp120 per well was incubated in the presence or absence of test compounds for 1 hr at room temperature. After four washes with buffer to remove unbound proteins, the bound gp120 was detected by anti-gp120 peroxidase-conjugated antibodies and quantitated by the protocol provided by the manufacturer.

HIV-1 IIIB = assay: Screening for virucidal activity against HIV-1 IIIB, MAGI cell assay; details: for activity against HIV in words: MAGI screening assay, HIV-1 IIIB; for inhibition of HIV-1 IIIB (percent virus inactivated), screening assay: 50 μg/ml, 1 hr in the dark, diluted 10-fold, MAGI cells, without removal of free compound
[2] = molecular target: T2, HIV-1 Env protein (HXB2 Env) (Human immunodeficiency virus type 1 group M subtype B, UniProt P04578); type: cell-based
T2 construct: expressed in transfected cells; host or cells: 293T cells transfected with pIIIenv3-1 plus pCMVTAT; cocultured with 3T3 cells expressing CD4 and CXCR4

HSV-1(F) or HSV-2(G) = assay: In vitro HSV inactivation, plaque assay on Vero cells; type: cell-based, herpes simplex virus; details: room temperature, in the dark, up to 60 minutes
Experimental: Either HSV-1(F) or HSV-2(G) (10^7 pfu) was mixed with 1 ml of porphyrin at the concentration indicated in Dulbecco's modified Eagle's medium (DME) with 1% newborn calf serum. All assays were performed in duplicate. All tubes were wrapped in foil to keep out light, and ambient room light was reduced as much as was practicable. Virus and porphyrin were incubated together at room temperature for times up to 60 minutes (Table 2). Following incubation, 10 fold serial dilutions were performed in DME with 1% newborn serum, using tubes wrapped in foil. Virus was diluted 20,000 fold and plated on Vero cells. Following a 2 hour incubation with the cells, the inoculum was removed and cells were overlaid with DME with 1% newborn calf serum and 0.2% human gamma globulin. Cells were fixed and stained, and plaques counted, 2 days after infection.

IIIB Env of HIV 1 = IIIB Env of HIV 1 (Human immunodeficiency virus type 1 group M subtype B, UniProt P03375); type: cell-based

Chain of 89.6 Env (Q73372 32-719 limits assumed): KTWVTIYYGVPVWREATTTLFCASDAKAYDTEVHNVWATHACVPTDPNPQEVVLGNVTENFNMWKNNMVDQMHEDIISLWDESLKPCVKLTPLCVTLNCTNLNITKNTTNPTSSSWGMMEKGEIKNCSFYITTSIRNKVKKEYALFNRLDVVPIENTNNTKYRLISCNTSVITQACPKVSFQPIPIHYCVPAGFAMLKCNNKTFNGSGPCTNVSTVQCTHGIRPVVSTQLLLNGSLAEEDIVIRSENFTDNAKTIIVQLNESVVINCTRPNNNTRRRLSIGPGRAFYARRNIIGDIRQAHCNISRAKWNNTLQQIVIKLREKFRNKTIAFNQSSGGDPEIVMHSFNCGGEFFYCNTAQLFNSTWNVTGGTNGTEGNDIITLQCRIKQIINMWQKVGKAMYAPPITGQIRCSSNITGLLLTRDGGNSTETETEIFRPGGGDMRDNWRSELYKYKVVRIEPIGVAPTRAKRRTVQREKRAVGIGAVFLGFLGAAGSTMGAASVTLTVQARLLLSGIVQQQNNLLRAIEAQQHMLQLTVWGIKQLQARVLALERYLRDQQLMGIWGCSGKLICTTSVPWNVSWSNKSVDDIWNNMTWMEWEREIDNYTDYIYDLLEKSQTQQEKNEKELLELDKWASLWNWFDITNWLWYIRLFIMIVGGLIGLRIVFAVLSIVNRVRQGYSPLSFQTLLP
Chain of 89.6 Env (Q73372 509-719 partner limits assumed): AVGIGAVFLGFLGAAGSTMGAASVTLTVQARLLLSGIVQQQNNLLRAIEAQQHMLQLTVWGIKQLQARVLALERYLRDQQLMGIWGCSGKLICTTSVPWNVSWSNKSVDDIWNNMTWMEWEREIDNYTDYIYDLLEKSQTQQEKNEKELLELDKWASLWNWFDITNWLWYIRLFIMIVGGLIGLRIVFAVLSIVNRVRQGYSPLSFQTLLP

## sulfonated 2,6-difluoroTPP [TPP(2,6-F2)S]
89.6 Env
  Presence of nuclei in syncytia, VV89.6 envt R5, 23 h: 1+/4+ (key: 4+: more than 50% of nuclei are in syncytia; 3+: 30 to 50% of nuclei are in syncytia; 2+: 30 to 10% of nuclei are in syncytia; +: less than 10% of nuclei are in syncytia; −: no syncytia were observed)
  Presence of nuclei in syncytia, VV89.6 envt X4, 23 h: 1+/4+ (key: 4+: more than 50% of nuclei are in syncytia; 3+: 30 to 50% of nuclei are in syncytia; 2+: 30 to 10% of nuclei are in syncytia; +: less than 10% of nuclei are in syncytia; −: no syncytia were observed)
[1]
  inhibition of gp120/CD4 binding in words: completely inhibit binding
HIV-1 IIIB
  activity against HIV in words: most active
[2]
  Presence of nuclei in syncytia, pIIIenv X4, 6 h: −
HSV-1(F) or HSV-2(G)
  inactivating HSVs: active

## tetrakis(2-chlorosulfonatophenyl)porphyrin
HSV-1(F) or HSV-2(G)
  inactivating HSVs: active

## sulfonated 4-chloroTPP [TPP4ClS]
[1]
  inhibition of gp120/CD4 binding: 85%
HIV-1 IIIB
  inhibition of HIV-1 IIIB (percent virus inactivated), screening assay: about 97%
  activity against HIV in words: most active

## O=S(=O)(O)c1ccc(-c2c3nc(c(-c4ccc(S(=O)(=O)O)cc4)c4ccc([n-]4)c(-c4ccc(S(=O)(=O)O)cc4)c4nc(c(-c5ccc(S(=O)(=O)O)cc5)c5ccc2[n-]5)C=C4)C=C3)cc1.[Pd+2] [TPPS4,Pd]
89.6 Env
  Presence of nuclei in syncytia, VV89.6 envt R5, 6 h: −/4+
  Presence of nuclei in syncytia, VV89.6 envt R5, 23 h: −/4+ (key: 4+: more than 50% of nuclei are in syncytia; 3+: 30 to 50% of nuclei are in syncytia; 2+: 30 to 10% of nuclei are in syncytia; +: less than 10% of nuclei are in syncytia; −: no syncytia were observed)
  Presence of nuclei in syncytia, VV89.6 envt X4, 6 h: −/4+
  Presence of nuclei in syncytia, VV89.6 envt X4, 23 h: −/4+ (key: 4+: more than 50% of nuclei are in syncytia; 3+: 30 to 50% of nuclei are in syncytia; 2+: 30 to 10% of nuclei are in syncytia; +: less than 10% of nuclei are in syncytia; −: no syncytia were observed)
[2]
  Presence of nuclei in syncytia, pIIIenv X4, 6 h: −

## O=S(=O)(O)c1ccc(Cl)c(-c2c3nc(c(-c4c(Cl)ccc(S(=O)(=O)O)c4Cl)c4ccc([nH]4)c(-c4c(Cl)ccc(S(=O)(=O)O)c4Cl)c4nc(c(-c5c(Cl)ccc(S(=O)(=O)O)c5Cl)c5ccc2[nH]5)C=C4)C=C3)c1Cl [tetrakis(2,6dichlorosulfonatonatophenyl)porphyrin]
HSV-1(F) or HSV-2(G)
  inactivating HSVs: active

## tetrakis(2-fluorosulfonatonatophenyl)porphyrin,Cu
HSV-1(F) or HSV-2(G)
  inactivating HSVs: active

## sulfonated 2-fluoroTPP [TPP2FS]
89.6 Env
  Presence of nuclei in syncytia, VV89.6 envt R5, 6 h: 4+/4+ (key: 4+: more than 50% of nuclei are in syncytia; 3+: 30 to 50% of nuclei are in syncytia; 2+: 30 to 10% of nuclei are in syncytia; +: less than 10% of nuclei are in syncytia; −: no syncytia were observed)
  Presence of nuclei in syncytia, VV89.6 envt R5, 23 h: 4+/4+ (key: 4+: more than 50% of nuclei are in syncytia; 3+: 30 to 50% of nuclei are in syncytia; 2+: 30 to 10% of nuclei are in syncytia; +: less than 10% of nuclei are in syncytia; −: no syncytia were observed)
  Presence of nuclei in syncytia, VV89.6 envt X4, 23 h: 1+/4+ (key: 4+: more than 50% of nuclei are in syncytia; 3+: 30 to 50% of nuclei are in syncytia; 2+: 30 to 10% of nuclei are in syncytia; +: less than 10% of nuclei are in syncytia; −: no syncytia were observed)
[1]
  inhibition of gp120/CD4 binding: 81%
IIIB Env of HIV 1
  Presence of nuclei in syncytia, VVenvl X4, 6 h: −/4+
  Presence of nuclei in syncytia, VVenvl X4, 23 h: −/4+ (key: 4+: more than 50% of nuclei are in syncytia; 3+: 30 to 50% of nuclei are in syncytia; 2+: 30 to 10% of nuclei are in syncytia; +: less than 10% of nuclei are in syncytia; −: no syncytia were observed)
HIV-1 IIIB
  inhibition of HIV-1 IIIB (percent virus inactivated), screening assay: about 80%
[2]
  Presence of nuclei in syncytia, pIIIenv X4, 6 h: −
HSV-1(F) or HSV-2(G)
  inactivating HSVs: active

## O=S(=O)(O)c1ccc(-c2c3nc(c(-c4ccc(S(=O)(=O)O)cc4)c4ccc([nH]4)c(-c4ccc(S(=O)(=O)O)cc4)c4nc(c(-c5ccc(S(=O)(=O)O)cc5)c5ccc2[nH]5)C=C4)C=C3)cc1 [TPPS4, mesotetra(4-sulfonatophenyl)porphine]
89.6 Env
  Presence of nuclei in syncytia, VV89.6 envt R5, 23 h: 1+/4+ (key: 4+: more than 50% of nuclei are in syncytia; 3+: 30 to 50% of nuclei are in syncytia; 2+: 30 to 10% of nuclei are in syncytia; +: less than 10% of nuclei are in syncytia; −: no syncytia were observed)
  Presence of nuclei in syncytia, VV89.6 envt X4, 6 h: −/4+
  Presence of nuclei in syncytia, VV89.6 envt X4, 23 h: −/4+ (key: 4+: more than 50% of nuclei are in syncytia; 3+: 30 to 50% of nuclei are in syncytia; 2+: 30 to 10% of nuclei are in syncytia; +: less than 10% of nuclei are in syncytia; −: no syncytia were observed)
HIV-1 IIIB
  inhibition of HIV-1 IIIB (percent virus inactivated), screening assay: 93%
[2]
  Presence of nuclei in syncytia, pIIIenv X4, 6 h: −

## O=S(=O)(O)c1ccc(-c2c3nc(c(-c4ccc(S(=O)(=O)O)cc4)c4ccc([nH]4)c(-c4ccc(S(=O)(=O)O)cc4)c4nc(c(-c5ccc(S(=O)(=O)O)cc5)c5ccc2[nH]5)C=C4)C=C3)cc1.[Zn] [TPPS4,Zn]
HSV-1(F) or HSV-2(G)
  inactivating HSVs: active

## O=S(=O)(O)c1ccc(-c2c3nc(c(-c4ccc(S(=O)(=O)O)cc4)c4ccc([nH]4)c(-c4ccc(S(=O)(=O)O)cc4)c4nc(c(-c5ccccc5)c5ccc2[nH]5)C=C4)C=C3)cc1.[Zn] [TPPS3,Zn]
HSV-1(F) or HSV-2(G)
  inactivating HSVs: active

## O=S(=O)(O)c1ccc(-c2c3nc(c(-c4ccc(S(=O)(=O)O)cc4)c4ccc([nH]4)c(-c4ccc(S(=O)(=O)O)cc4)c4nc(c(-c5ccccc5)c5ccc2[nH]5)C=C4)C=C3)cc1.[Cu] [TPPS3,Cu]
HSV-1(F) or HSV-2(G)
  inactivating HSVs: active

## O=S(=O)(O)c1ccc(-c2c3nc(c(-c4ccc(S(=O)(=O)O)cc4)c4ccc([n-]4)c(-c4ccc(S(=O)(=O)O)cc4)c4ccc([n-]4)c(-c4ccc(S(=O)(=O)O)cc4)c4nc2C=C4)C=C3)cc1.[Ni+2] [TPPS4,Ni]
89.6 Env
  Presence of nuclei in syncytia, VV89.6 envt R5, 6 h: −/1+
  Presence of nuclei in syncytia, VV89.6 envt X4, 6 h: −/3+
  Presence of nuclei in syncytia, VV89.6 envt X4, 23 h: −/3+ (key: 4+: more than 50% of nuclei are in syncytia; 3+: 30 to 50% of nuclei are in syncytia; 2+: 30 to 10% of nuclei are in syncytia; +: less than 10% of nuclei are in syncytia; −: no syncytia were observed)

## O=C(O)c1ccc(-c2c3nc(c(-c4ccc(C(=O)O)cc4)c4ccc([nH]4)c(-c4ccc(C(=O)O)cc4)c4nc(c(-c5ccc(C(=O)O)cc5)c5ccc2[nH]5)C=C4)C=C3)cc1 [TPPC4]
HSV-1(F) or HSV-2(G)
  inactivating HSVs: active

## O=S(=O)(O)c1ccc(C2=C3C=CC(=N3)[C-](c3ccc(S(=O)(=O)O)cc3)C3=NC(=C(c4ccc(S(=O)(=O)O)cc4)c4[cH-]cc(n4)C(c4ccc(S(=O)(=O)O)cc4)=C4C=CC2=N4)C=C3)cc1.[Cu+2] (stereo not shown) [TPPS4,Cu]
[1]
  inhibition of gp120/CD4 binding: 80-100%
IIIB Env of HIV 1
  inhibition of HIV-induced cell fusion in words: Complete inhibition
HIV-1 IIIB
  inhibition of HIV-1 IIIB (percent virus inactivated), screening assay: 97%
  activity against HIV in words: intermediate levels of activity
[2]
  Presence of nuclei in syncytia, pIIIenv X4, 6 h: −
HSV-1(F) or HSV-2(G)
  inactivating HSVs: active

## Cc1cc(C)c(S(=O)(=O)O)c(C)c1-c1c2nc(c(-c3c(C)cc(C)c(S(=O)(=O)O)c3C)c3ccc([n-]3)c(-c3c(C)cc(C)c(S(=O)(=O)O)c3C)c3nc(c(-c4c(C)cc(C)c(S(=O)(=O)O)c4C)c4ccc1[n-]4)C=C3)C=C2.[Co+2] [TMPS,Co]
HIV-1 IIIB
  inhibition of HIV-1 IIIB (percent virus inactivated), screening assay: about 80%
HSV-1(F) or HSV-2(G)
  inactivating HSVs: active
